Laboratory results taken from patent US20250074919A1, “Heteroaryl compounds as inhibitors of irak4, compositions and applications thereof” (Accro Bioscience (HK) Limited, priority 2021, published 2025).
Counter-ions that a name gives are not always drawn. Like-named read-outs stand apart in the source and are kept apart here.

Molecular target: IRAK4 (Homo sapiens (Human), UniProt Q9NWZ3)
Test: Screening the compounds against IRAK4 with ATP (Caliper, FAM-labeled peptide)
Format: biochemical
Settings: for IC50: read-out: IC50 (nM) (10 μM ATP); for activity, times better than that of the positive control compound CA4948: IRAK4 kinase inhibition relative to CA4948
Protocol: Prepare Ix kinase base buffer and stop buffer for testing kinases: (1) base buffer: 50 mM HEPES (pH 7.5), 0.0015% Brij-35; (2) stop buffer: 100 mM HEPES (pH 7.5), 0.015% Brij-35, 0.2% Coating Reagent #3, 50 mM EDTA. Then prepare compounds for testing: Dilute the compound to 50× of the final desired highest inhibitor concentration in reaction by 100% DMSO. Transfer 100 μL of this compound dilution to a well in a 96-well plate (source plate).
Serially dilute the compounds by 3-fold for a total of 10 points. Transfer 10 μL of the compound from the source plate to a new 96-well plate (intermediate plate) and add 90 μL of Ix kinase buffer. Shake the mixture on the intermediate plate for 10 min. Transfer 5 μL of each well from the 96-well intermediate plate to a 384-well plate in duplicates. Add 10 μL of 2.5× enzyme solution to each well of the 384-well assay plate and incubate at room temperature for 10 min. Add 10 μL, of 2.5×FAM-labeled peptide and ATP solution and incubate at 28° C. for a period of time. Finally stop the reaction by adding 30 μL of stop buffer and collect data on Caliper to obtain the IC50.

Sequence of IRAK4 (Q9NWZ3 whole entry): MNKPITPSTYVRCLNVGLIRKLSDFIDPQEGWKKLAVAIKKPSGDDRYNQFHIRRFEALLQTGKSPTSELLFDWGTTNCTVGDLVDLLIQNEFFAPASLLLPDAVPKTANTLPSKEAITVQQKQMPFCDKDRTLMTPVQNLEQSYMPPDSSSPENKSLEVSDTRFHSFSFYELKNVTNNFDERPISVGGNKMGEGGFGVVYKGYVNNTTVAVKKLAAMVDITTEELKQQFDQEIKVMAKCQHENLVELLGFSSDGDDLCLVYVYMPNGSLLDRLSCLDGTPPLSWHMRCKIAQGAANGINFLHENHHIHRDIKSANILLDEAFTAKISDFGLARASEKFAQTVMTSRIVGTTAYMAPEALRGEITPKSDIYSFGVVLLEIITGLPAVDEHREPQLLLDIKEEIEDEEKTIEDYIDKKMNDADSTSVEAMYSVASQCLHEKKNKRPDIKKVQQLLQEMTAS

| SMILES | IC50 (IRAK4 kinase, 10 μM ATP) [nM] | activity, times better than that of the positive control compound CA4948 | IC50 [nM] |
| --- | --- | --- | --- |
| Cn1cc(-c2cccc(NC(=O)c3cc4oc(N5CCOCC5)nc4nc3N3CC(O)(C4CC4)C3)n2)cn1 [Compound A10, 5-(3-Cyclopropyl-3-hydroxyazetidin-1-yl)-N-(6-(1-methyl-1H-pyrazol-4-yl)pyridin-2-yl)-2-morpholinooxazolo[4,5-b]pyridine-6-carboxamide] | 122 |  |  |
| CN(C)C1CCN(c2nc3nc(N4CCOCC4)oc3cc2C(=O)Nc2cccc(-c3cnn(C)c3)n2)CC1 [Compound A23, 5-(4-(Dimethylamino)piperidin-1-yl)-N-(6-(1-methyl-1H-pyrazol-4-yl)pyridin-2-yl)-2-morpholinooxazolo[4,5-b]pyridine-6-carboxamide] | 425 |  |  |
| Cn1cc(-c2cccc(NC(=O)c3cc4oc(N5CCOCC5)nc4nc3N3C4CCC3CC(O)C4)n2)cn1 (stereo not drawn) [Compound A28, 5-(3-Hydroxy-8-azabicyclo[3.2.1]octan-8-yl)-N-(6-(1-methyl-1H-pyrazol-4-yl)pyridin-2-yl)-2-morpholinooxazolo[4,5-b]pyridine-6-carboxamide] | 80 |  |  |
| CC1(C)Cc2cc(C(=O)Nc3cccn([C@H]4C[C@H]4F)c3=O)c(N3CCC(O)CC3)nc2O1 [Compound B9, N-(1-((1S,2R)-2-Fluorocyclopropyl)-2-oxo-1,2-dihydropyridin-3-yl)-6-(4-hydroxypiperidin-1-yl)-2,2-dimethyl-2,3-dihydrofuro[2,3-b]pyridine-5-carboxamide] | 69 |  |  |
| COc1cccc(NC(=O)c2cc3oc(N4CCOCC4)nc3nc2N2CCC(OC)CC2)n1 [Compound A46, 5-(4-Methoxypiperidin-1-yl)-N-(6-methoxypyridin-2-yl)-2-morpholinooxazolo[4,5-b]pyridine-6-carboxamide] | 179 |  |  |
| COc1nc2c(cc1C(=O)Nc1cccc(-c3cnn(C)c3)n1)CC(C)(C)O2 [Compound B11, 6-Methoxy-2,2-dimethyl-N-(6-(1-methyl-1H-pyrazol-4-yl)pyridin-2-yl)-2,3-dihydrofuro[2,3-b]pyridine-5-carboxamide] | 50 |  |  |
| CN1CCN(c2nc3nc(N4CCOCC4)oc3cc2C(=O)Nc2cccc(-c3cnn(C)c3)n2)CC1 [Compound A3, N-(6-(1-methyl-1H-pyrazol-4-yl)pyridin-2-yl)-5-(4-methylpiperazin-1-yl)-2-morpholinooxazolo[4,5-b]pyridine-6-carboxamide] | 43 |  |  |
| CN1CCN(c2nc3nc(N4CCC(C)(O)CC4)c(C(=O)Nc4cccc(-c5cnn(C)c5)n4)cc3o2)CC1 [Compound A59, 5-(4-Hydroxy-4-methylpiperidin-1-yl)-N-(6-(1-methyl-1H-pyrazol-4-yl)pyridin-2-yl)-2-(4-methylpiperazin-1-yl)oxazolo[4,5-b]pyridine-6-carboxamide] | 6.6 |  |  |
| Cn1cc(-c2cccc(NC(=O)c3cc4c(nc3N3CCC(C)(O)CC3)OC(C)(C)C4)n2)cn1 [Compound B7, 6-(4-Hydroxy-4-methylpiperidin-1-yl)-2,2-dimethyl-N-(6-(1-methyl-1H-pyrazol-4-yl)pyridin-2-yl)-2,3-dihydrofuro[2,3-b]pyridine-5-carboxamide] | 11 |  |  |
| COc1nc2nc(N3CCOCC3)oc2cc1C(=O)Nc1cccc(-c2cnn(C)c2)n1 [Compound A54, 5-Methoxy-N-(6-(1-methyl-1H-pyrazol-4-yl)pyridin-2-yl)-2-morpholinooxazolo[4,5-b]pyridine-6-carboxamide] | 21 | more than 5 times |  |
| Cc1cc(-c2nc(NC(=O)c3cc4oc(N5CCOCC5)nc4nc3N3CC[C@@H](O)C3)co2)ccn1 [Compound A49, (R)-5-(3-Hydroxypyrrolidin-1-yl)-N-(2-(2-methylpyridin-4-yl)oxazol-4-yl)-2-morpholinooxazolo[4,5-b]pyridine-6-carboxamide] | > 6000 |  |  |
| Cn1cc(-c2cccc(NC(=O)c3cc4c(nc3OC3CCC3)OC(C)(C)C4)n2)cn1 [Compound B14, 6-Cyclobutoxy-2,2-dimethyl-N-(6-(1-methyl-1H-pyrazol-4-yl)pyridin-2-yl)-2,3-dihydrofuro[2,3-b]pyridine-5-carboxamide] | 6.1 |  |  |
| Cn1cc(-c2cccc(NC(=O)c3cc4c(nc3N3CCNC5(CC5)C3)OC(C)(C)C4)n2)cn1 [Compound B8, 2,2-Dimethyl-N-(6-(1-methyl-1H-pyrazol-4-yl)pyridin-2-yl)-6-(4,7-diazaspiro[2.5]octan-7-yl)-2,3-dihydrofuro[2,3-b]pyridine-5-carboxamide] | 224 |  |  |
| COCCN1CCN(c2nc3nc(N4CCOCC4)oc3cc2C(=O)Nc2cccc(-c3cnn(C)c3)n2)CC1 [Compound A34, 5-(4-(2-Methoxyethyl)piperazin-1-yl)-N-(6-(1-methyl-1H-pyrazol-4-yl)pyridin-2-yl)-2-morpholinooxazolo[4,5-b]pyridine-6-carboxamide Hydrochloride] | 40 |  |  |
| COC1CCN(c2nc3nc(N4CCN(CCO)CC4)oc3cc2C(=O)Nc2cccc(-c3cnn(C)c3)n2)CC1 [Compound A57, 2-(4-(2-Hydroxyethyl)piperazin-1-yl)-5-(4-methoxypiperidin-1-yl)-N-(6-(1-methyl-1H-pyrazol-4-yl)pyridin-2-yl)oxazolo[4,5-b]pyridine-6-carboxamide] |  |  | 5.1 |

Further lines, with some results ahead:

| IC50 (IRAK4 kinase, 10 μM ATP) [nM] | activity, times better than that of the positive control compound CA4948 | SMILES | IC50 [nM] |
| --- | --- | --- | --- |
| 170 |  | Cn1cc(-c2cccc(NC(=O)c3cc4c(nc3OC3CNC3)OC(C)(C)C4)n2)cn1 [Compound B30, 6-(Azetidin-3-yloxy)-2,2-dimethyl-N-(6-(1-methyl-1H-pyrazol-4-yl)pyridin-2-yl)-2,3-dihydrofuro[2,3-b]pyridine-5-carboxamide] |  |
| 54 |  | CN1CCN(c2nc3c(cc2C(=O)Nc2cccc(-c4cnn(C)c4)n2)CC(C)(C)O3)CC1 [Compound B2, 2,2-Dimethyl-N-(6-(1-methyl-1H-pyrazol-4-yl)pyridin-2-yl)-6-(4-methylpiperazin-1-yl)-2,3-dihydrofuro[2,3-b]pyridine-5-carboxamide] |  |
| 244 |  | Cn1cc(-c2cccc(NC(=O)c3cc4oc(N5CCOCC5)nc4nc3N3CC4(C3)CC(F)(F)C4)n2)cn1 [Compound A15, 5-(6,6-Difluoro-2-azaspiro[3.3]heptan-2-yl)-N-(6-(1-methyl-1H-pyrazol-4-yl)pyridin-2-yl)-2-morpholinooxazolo[4,5-b]pyridine-6-carboxamide] |  |
| 8.6 | more than 10 times | Cn1cc(-c2cccc(NC(=O)c3cc4oc(N5CCOCC5)nc4nc3N3CCC(C)(O)CC3)n2)cn1 [Compound A25, 5-(4-Hydroxy-4-methylpiperidin-1-yl)-N-(6-(1-methyl-1H-pyrazol-4-yl)pyridin-2-yl)-2-morpholinooxazolo[4,5-b]pyridine-6-carboxamide] |  |
| 13 |  | CC(Oc1nc2c(cc1C(=O)Nc1cccc(-c3cnn(C)c3)n1)CC(C)(C)O2)C1CC1 (stereo not drawn) [Compound B26, 6-(1-Cyclopropylethoxy)-2,2-dimethyl-N-(6-(1-methyl-1H-pyrazol-4-yl)pyridin-2-yl)-2,3-dihydrofuro[2,3-b]pyridine-5-carboxamide] |  |
| 125 |  | CC1CN(c2nc3nc(N4CCOCC4)oc3cc2C(=O)Nc2cccc(-c3cnn(C)c3)n2)CCN1C (stereo not drawn) [Compound A30, 5-(3,4-Dimethylpiperazin-1-yl)-N-(6-(1-methyl-1H-pyrazol-4-yl)pyridin-2-yl)-2-morpholinooxazolo[4,5-b]pyridine-6-carboxamide Hydrochloride] |  |
| 5.9 |  | Cn1cc(-c2cccc(NC(=O)c3cc4c(nc3N3CCC5(CCO5)CC3)OC(C)(C)C4)n2)cn1 [Compound B6, 2,2-Dimethyl-N-(6-(1-methyl-1H-pyrazol-4-yl)pyridin-2-yl)-6-(1-oxa-7-azaspiro[3.5]nonan-7-yl)-2,3-dihydrofuro[2,3-b]pyridine-5-carboxamide] |  |
| 7.5 |  | Cn1cc(-c2cccc(NC(=O)c3cc4c(nc3N3CCN(C5CC5)CC3)OC(C)(C)C4)n2)cn1 [Compound B4, 6-(4-Cyclopropylpiperazin-1-yl)-2,2-dimethyl-N-(6-(1-methyl-1H-pyrazol-4-yl)pyridin-2-yl)-2,3-dihydrofuro[2,3-b]pyridine-5-carboxamide] |  |
| 6.5 |  | Cn1cc(-c2cccc(NC(=O)c3cc4c(nc3O[C@H]3CCOC3)OC(C)(C)C4)n2)cn1 [Compound B17, (S)-2,2-Dimethyl-N-(6-(1-methyl-1H-pyrazol-4-yl)pyridin-2-yl)-6-((tetrahydrofuran-3-yl)oxy)-2,3-dihydrofuro[2,3-b]pyridine-5-carboxamide] |  |
| 98 |  | COc1ncccc1NC(=O)c1cc2oc(N3CCOCC3)nc2nc1N1CCC(OC)CC1 [Compound A50, 5-(4-Methoxypiperidin-1-yl)-N-(2-methoxypyridin-3-yl)-2-morpholinooxazolo[4,5-b]pyridine-6-carboxamide] |  |
| 6.2 | more than 10 times | Cn1cc(-c2cccc(NC(=O)c3cc4c(nc3OC3CC3)OC(C)(C)C4)n2)cn1 [Compound B29, 6-Cyclopropoxy-2,2-dimethyl-N-(6-(1-methyl-1H-pyrazol-4-yl)pyridin-2-yl)-2,3-dihydrofuro[2,3-b]pyridine-5-carboxamide] |  |
| 33 |  | Cn1cc(-c2cccc(NC(=O)c3cc4oc(N5CCOCC5)nc4nc3N3CCC(F)(F)C3)n2)cn1 [Compound A12, 5-(3,3-Difluoropyrrolidin-1-yl)-N-(6-(1-methyl-1H-pyrazol-4-yl)pyridin-2-yl)-2-morpholinooxazolo[4,5-b]pyridine-6-carboxamide] |  |
